From patent US20260207648A1, “NOVEL SMALL MOLECULE KRAS INHIBITOR: DRUGGING UNDRUGGABLE TARGETS FOR CANCER THERAPEUTICS” (PILLAI UNIVERSAL LLC, priority 2022, published 2026)
pIC50: −log10 of the molar value. Read-outs that look alike come from different tables or passages of the source.

Key:
[1] = tested on: p53, p21, p27, Cyclin B, cdc2, CDK2, CDK4, CDK6, Cyclin D1, Cyclin D3, pRb; experiment: Protein levels of cell cycle regulatory proteins; type: cell-based
Protocol: (§1) Flow cytometry analysis was performed to verify whether COMPOUND I induced apoptosis was related to cell cycle arrest. Cell cycle distribution in KRAS Mutated cell lines was quantified after treatment with different COMPOUND I concentrations. […] Therefore, it was attempted to determine whether COMPOUND I treatment also can influence the expression level of G1/S phase cell cycle regulatory proteins.

[2] = tested on: Ras-GTP complex; experiment: Ras pull-down assay; type: cell-based, human; conditions: PANC-1, MIA PaCa-2 and NCIH1975; read-out: IC50 Ras-GTP complex formation
Protocol: As a follow up to the downstream assays, the ability of COMPOUND I was also measured to inhibit Ras-GTP complex formation in the three tested cell-lines (PANC-1, MIA PaCa-2 and NCIH1975) using a Ras pull-down assay. […] These values correlate well with the IC50 values obtained for the inhibition of MEK, Erk1/2 and Akt phosphorylation presented in FIGS. 2 and 3.

[3] = tested on: MEK; experiment: Inhibition of Ras downstream pathways: MEK phosphorylation; type: cell-based; conditions: Homo sapiens, read-out: IC50 phosphorylation and activation of MEK
Protocol: (§2) The inhibitory effects of compounds COMPOUND I was tested on Ras-associated signal transduction pathways in three different human cell lines: the pancreatic cell-lines PANC-1 (K-Ras G12D mutant), MIA PaCa-2 (K-Ras G12C mutant), and the non-small cell lung cancer cell-line NCI-H1975 (KRas WT). FIG. 8 illustrate the inhibitory effects of COMPOUND I on phosphorylation and activation of MEK, Erk1/2 and Akt in those three cell lines. […] In contrast, the IC50s of compound COMPOUND I on the phosphorylation and activation of MEK and Erk1/2 were approximately 2 μM in PANC-1 and MIA PaCa-2 and 3 μM in NCI-H1975; and, of Akt, were approximately 5 μM in PANC-1 and MIA PaCa-2 and 5 μM in NCIH1975 (FIG. 8).

[4] = tested on: apoptosis; experiment: DNA fragmentation assay / apoptosis quantitation; type: cell-based
Protocol: (§3) To confirm that COMPOUND I induced cell apoptosis, DNA fragmentation assay, was performed. […] Furthermore, the expression levels of proteins related to apoptosis and cell cycle progression by western blotting were examined. Cells were treated with COMPOUND I at different concentrations and total proteins were isolated. Beta-Actin was used as an internal control. […] The effect of drugs on the cleavage of procaspase 9 and procaspase 3 were examined. […] Caspase-3 is a key regulator of mitochondrial dependent and independent apoptotic pathways and activation of caspase-3 leads to cleavage of several substrates including PARP.

[5] = tested on: PANC-1, MIA PaCa-2, NCIH1975, A549 (K-Ras G12S mutant), NCI-H1299 (N-Ras Q61K mutant); experiment: Cellular proliferation of Ras wild type/mutant cell lines; type: cell-based; conditions: Homo sapiens; range over all tested cell lines
Protocol: The inhibition of compounds COMPOUND I on the cellular proliferation of […] cell lines were measured: The three cell lines in the signaling studies (PANC-1, MIA PaCa-2, NCIH1975), and the non-small cell lung cancer lines A549 (K-Ras G12S mutant) and NCI-H1299 (N-Ras Q61K mutant). FIG. 7 and IC50 values measured in these studies. […] Consistent with the notion that these compounds are pan-Ras superfamily inhibitors, it is reasonable to speculate that they can inhibit pathways downstream of several members of the Rassuperfamily.

[6] = tested on: normal monkey Kidney epithelial cells; experiment: MTT cytotoxicity on normal cells; type: cell-based; conditions: normal monkey Kidney epithelial cells versus cancer cell lines
Protocol: (§4) Several cell lines including human breast carcinoma (MCF7), colon adenocarcinoma (HT-29), Liver adenocarcinoma (HEP G2), Lung adenocarcinoma (A549) were treated with a range of COMPOUND I for 48 hours and the percentage of cell viability was determined by MTT assay. The average total viable cells were precisely calculated and anti-proliferative effects were determined. […] The drug were also tested on normal monkey Kidney epithelial cells.

[7] = tested on: Akt; experiment: Inhibition of Ras downstream pathways: Akt phosphorylation; type: cell-based; conditions: Homo sapiens, read-out: IC50 phosphorylation and activation of Akt
Protocol: as §2

[8] = tested on: Erk1/2; experiment: Inhibition of Ras downstream pathways: Erk1/2 phosphorylation; type: cell-based; conditions: Homo sapiens, read-out: IC50 phosphorylation and activation of Erk1/2
Protocol: as §2

[9] = tested on: Bcl-2, Bax, caspase-9, caspase-3, PARP; experiment: Western blotting of apoptosis-related proteins; type: cell-based; conditions: western blot
Protocol: as §3

[10] = tested on: Akt, mTOR, ERK; experiment: Akt/mTOR/ERK pathway activation; type: cell-based
Description: In order to better understand the molecular basis of COMPOUND I induced cell cycle arrest and apoptosis, the expression of Akt and mTOR was investigated with various concentrations of COMPOUND I. Akt/mTOR is an important cell survival pathway and activated Akt inhibits apoptosis leading to cell survival. […] Additionally, it was examined whether COMPOUND I effect involved ERK signaling pathway and found the decreased activation of ERK.

[11] = tested on: MEK, Erk1/2 and Akt; experiment: Inhibition of Ras downstream pathways (summary over readouts and cell lines); type: cell-based; conditions: Homo sapiens; PANC-1, MIA PaCa-2 and NCI-H1975; read-out: IC50 phosphorylation and activation of MEK, Erk1/2 and Akt
Protocol: as §2

[12] = tested on: Control cell lines; experiment: Cell-cycle regulation and apoptosis in control cell lines; type: cell-based; conditions: control cell lines compared with KRAS Mutated cell lines
[13] = tested on: KRAS Mutated cell lines; experiment: Flow cytometry cell cycle distribution; type: cell-based
Protocol: as §1

[14] = tested on: MCF7, HT-29, HEP G2, A549; experiment: Cell viability (MTT assay) on human adenocarcinoma cell lines; type: cell-based; conditions: 48 hours, 250 to 0.97 nmol/L
Protocol: as §4

For COc1cc(C(C)=O)ccc1C(=O)COP(=O)(O)OP(=O)(O)OP(=O)(O)OCC1OC(n2cnc3c(=O)[nH]c(Nc4ccc(O)cc4)nc32)C(O)C1O (centres unmarked) [COMPOUND I], the “expression levels of p21, p27 and p53” value ([1]; KRAS Mutated cell lines) was “Greater expression levels”, the “expression levels of CDK4, CDK6, Cyclin D1, Cyclin D3, pRb” value ([1]; dose-dependent) was “decreased significantly” and the “expression levels of Cyclin B, cdc2, CDK2” value ([1]; dose-dependent) was “decreased significantly”. The pIC50 [2] was 5.52 to 5.70, the pIC50 ([3]; MIA PaCa-2 (K-Ras G12C mutant)) was roughly 5.70 and the pIC50 ([3]; NCI-H1975 (KRas WT)) was roughly 5.52. The pIC50 ([3]; PANC-1 (K-Ras G12D mutant)) was roughly 5.70, the “DNA fragmentation (ladder pattern in agarose gels)” value ([4]; 48 hours, all concentrations tested) was “lead to DNA fragmentation” and the “apoptosis (quantitative analysis)” value ([4]; treated cells) was “significant increase of apoptosis”. For the same compound, the pIC50 [5] was 5.92 to 6.35, the “sensitivity to induced cytotoxicity” value [6] was “less sensitive” and the pIC50 ([7]; NCI-H1975, NCIH1975 (KRas WT)) was roughly 5.30. It also gave a pIC50 ([7]; MIA PaCa-2 (K-Ras G12C mutant)) of roughly 5.30, a pIC50 ([7]; PANC-1 (K-Ras G12D mutant)) of roughly 5.30 and a pIC50 ([8]; MIA PaCa-2 (K-Ras G12C mutant)) of roughly 5.70. The pIC50 ([8]; NCI-H1975 (KRas WT)) was roughly 5.52, the pIC50 ([8]; PANC-1 (K-Ras G12D mutant)) was roughly 5.70 and the “cleavage of PARP into 116 kDa and 84 kDa fragment” value [9] was “induced the cleavage of PARP”. For the same compound, the “cleavages of procaspase 9 and procaspase 3” value [9] was “induced in a dose-dependent manner”, the “expression of Bcl-2” value ([9]; dose dependent) was “down regulated” and the “expression of proapoptotic proteins Bax, caspase-9 and caspase-3” value ([9]; dose dependent) was “induced expression”. For the same compound, the “total Akt and mTOR levels” value [10] was “remained constant”, the “phosphorylation of Akt and mTOR” value ([10]; Serine 473 and Serine 2448, concentration-dependent) was “suppressed” and the “phosphorylation of ERK” value ([10]; Threonine 202 and Tyrosine 204) was “suppressed”. The pIC50 [11] was 5.52 to 6.00, the “changes in cell-cycle regulation and apoptosis” value [12] was “better protected” and the “cells showing G1/S phase arrest” value [13] was 23.98%. The “number of cells in the G2/M phase” value [13] was 76.89% and the “proliferation / cell viability” value [14] was “inhibited the proliferation of all the cell lines in a dose-dependent manner”.
